According to patent US6358885B1, “Substituted phenylheterocyclic herbicides” (Mississippi State University, priority 1992, dated 2002):

Columns and labels:
[1] = tested on: wheat; test: Test C preemergence/postemergence greenhouse plant response rating 0 to 100; type: in vivo, Triticum aestivum; settings: PREEMERGENCE
Outline: (§1)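 Compounds in non-phytotoxic solvent went onto sandy loam before emergence (seeded one day earlier) or onto plants at the one-to-four leaf stage. Duck salad was treated via flood water (~2.5 cm, maintained) over silt loam.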

[2] = tested on: crabgrass; test: as above; type: in vivo, Digitaria sanguinalis; settings: PREEMERGENCE; for Plant response rating, Crabgrass: 0 to 100 scale
Outline: as §1

[3] = tested on: velvetleaf; test: as above; type: in vivo, Abutilon theophrasti; settings: PREEMERGENCE
Outline: as §1

[4] = tested on: morningglory; test: as above; type: in vivo, Ipomoea hederacea; settings: PREEMERGENCE; for Plant response rating, Morningglory: 0 to 100 scale
Outline: as §1

[5] = tested on: velvetleaf; test: Test B preemergence/postemergence greenhouse plant response rating 0 to 10; type: in vivo, Abutilon theophrasti; settings: 0 to 10 scale
Outline: (§2)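 Test chemicals were sprayed onto freshly planted seed and, concurrently, onto young plants between the one and four leaf stage. After a twelve- to sixteen-day greenhouse period, each species was visually compared with untreated controls.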

[6] = tested on: chickweed; test: as above; type: in vivo, Stellaria media; settings: 0 to 10 scale
Outline: as §2

[7] = tested on: soybean; test: as above; type: in vivo, Glycine max; settings: 0 to 10 scale
Outline: as §2

[8] = tested on: morningglory; test: as above; type: in vivo, Ipomoea hederacea; settings: 0 to 10 scale
Outline: as §2

[9] = tested on: corn; test: Test C preemergence/postemergence greenhouse plant response rating 0 to 100; type: in vivo, Zea mays; settings: PREEMERGENCE; for Plant response rating, Corn: 0 to 100 scale
Outline: as §1

[10] = tested on: corn; test: Test B preemergence/postemergence greenhouse plant response rating 0 to 10; type: in vivo, Zea mays; settings: 0 to 10 scale
Outline: as §2

[11] = tested on: lambsquarters; test: Test C preemergence/postemergence greenhouse plant response rating 0 to 100; type: in vivo, Chenopodium album; settings: PREEMERGENCE; for Plant response rating Lambsquarters: 0 to 100 scale
Outline: as §1

[12] = tested on: sugar beet; test: Test B preemergence/postemergence greenhouse plant response rating 0 to 10; type: in vivo, Beta vulgaris; settings: 0 to 10 scale
Outline: as §2

`CCCN1C(=O)COc2cc(F)c(-c3nn4c(c3Br)CCCC4)cc21` [Compound 63] was tested, and the “Plant response rating, Wheat” value ([1]; 250 g/ha, 0 to 100 scale) was 50, the “Plant response rating (0 to 100), Wheat” value ([1]; Rate 4 g/ha) was 0 and the “Plant response rating (0 to 100), Wheat” value ([1]; Rate 16 g/ha) was 0. The “Plant response rating, Crabgrass” value ([2]; 62 g/ha) was 0, the “Plant response rating, Crabgrass” value ([2]; 250 g/ha) was 70 and the “Plant response rating (0 to 100), Crabgrass” value ([2]; Rate 4 g/ha) was 0. For the same molecule, the “Plant response rating (0 to 100), Crabgrass” value ([2]; Rate 16 g/ha) was 0, the “Plant response rating, Velvetleaf” value ([3]; 250 g/ha, 0 to 100 scale) was 100 and the “Plant response rating (0 to 100), Velvetleaf” value ([3]; Rate 4 g/ha) was 0. For the same molecule, the “Plant response rating (0 to 100), Velvetleaf” value ([3]; Rate 16 g/ha) was 20, the “Plant response rating, Morningglory” value ([4]; 62 g/ha) was 40 and the “Plant response rating, Morningglory” value ([4]; 250 g/ha) was 100. For the same molecule, the “Plant response rating (0 to 100), Morningglory” value ([4]; Rate 4 g/ha) was 0, the “Plant response rating (0 to 100), Morningglory” value ([4]; Rate 16 g/ha) was 10 and the “Plant response rating, Velvetleaf” value ([5]; POSTEMERGENCE, Rate 10 g/ha) was 8. For the same molecule, the “Plant response rating, Velvetleaf” value ([5]; POSTEMERGENCE, Rate 50 g/ha) was 10, the “Plant response rating, Velvetleaf” value ([5]; PREEMERGENCE, Rate 50 g/ha) was 7 and the “Plant response rating, Chickweed” value ([6]; POSTEMERGENCE, Rate 10 g/ha) was 5. For the same molecule, the “Plant response rating, Chickweed” value ([6]; POSTEMERGENCE, Rate 50 g/ha) was 9, the “Plant response rating, Chickweed” value ([6]; PREEMERGENCE, Rate 10 g/ha) was 0 and the “Plant response rating, Chickweed” value ([6]; PREEMERGENCE, Rate 50 g/ha) was 9. For the same molecule, the “Plant response rating, Soybean” value ([7]; POSTEMERGENCE, Rate 10 g/ha) was 6, the “Plant response rating, Soybean” value ([7]; POSTEMERGENCE, Rate 50 g/ha) was 5 and the “Plant response rating, Soybean” value ([7]; PREEMERGENCE, Rate 50 g/ha) was 0. For the same molecule, the “Plant response rating, Morningglory” value ([8]; POSTEMERGENCE, Rate 10 g/ha) was 8, the “Plant response rating, Morningglory” value ([8]; POSTEMERGENCE, Rate 50 g/ha) was 10 and the “Plant response rating, Morningglory” value ([8]; PREEMERGENCE, Rate 50 g/ha) was 0. The “Plant response rating, Corn” value ([9]; 62 g/ha) was 20, the “Plant response rating, Corn” value ([9]; 250 g/ha) was 30 and the “Plant response rating (0 to 100), Corn” value ([9]; Rate 4 g/ha) was 0. The “Plant response rating (0 to 100), Corn” value ([9]; Rate 16 g/ha) was 0, the “Plant response rating, Corn” value ([10]; POSTEMERGENCE, Rate 10 g/ha) was 2 and the “Plant response rating, Corn” value ([10]; POSTEMERGENCE, Rate 50 g/ha) was 2. The “Plant response rating, Corn” value ([10]; PREEMERGENCE, Rate 50 g/ha) was 0, the “Plant response rating Lambsquarters” value ([11]; 62 g/ha) was 95 and the “Plant response rating Lambsquarters” value ([11]; 250 g/ha) was 100. For the same molecule, the “Plant response rating (0 to 100), Lambsquarters” value ([11]; Rate 4 g/ha) was 10, the “Plant response rating (0 to 100), Lambsquarters” value ([11]; Rate 16 g/ha) was 20 and the “Plant response rating, Sugar beet” value ([12]; POSTEMERGENCE, Rate 10 g/ha) was 10. For the same molecule, the “Plant response rating, Sugar beet” value ([12]; POSTEMERGENCE, Rate 50 g/ha) was 10 and the “Plant response rating, Sugar beet” value ([12]; PREEMERGENCE, Rate 50 g/ha) was 10.
